Results as given in PMC11788587, “Validating Low‐Dose Iohexol as a Marker for Glomerular Filtration Rate by In Vitro and In Vivo Studies” (Clinical and Translational Science, 2025).

Target: T1, hMATE1 (Homo sapiens, UniProt Q96FL8)
T1 construct: expressed in transfected cells; host or cells: HEK-293 (293) cells, pEBTetD plasmid, doxycycline-induced
T1 sequence (Q96FL8 1-570): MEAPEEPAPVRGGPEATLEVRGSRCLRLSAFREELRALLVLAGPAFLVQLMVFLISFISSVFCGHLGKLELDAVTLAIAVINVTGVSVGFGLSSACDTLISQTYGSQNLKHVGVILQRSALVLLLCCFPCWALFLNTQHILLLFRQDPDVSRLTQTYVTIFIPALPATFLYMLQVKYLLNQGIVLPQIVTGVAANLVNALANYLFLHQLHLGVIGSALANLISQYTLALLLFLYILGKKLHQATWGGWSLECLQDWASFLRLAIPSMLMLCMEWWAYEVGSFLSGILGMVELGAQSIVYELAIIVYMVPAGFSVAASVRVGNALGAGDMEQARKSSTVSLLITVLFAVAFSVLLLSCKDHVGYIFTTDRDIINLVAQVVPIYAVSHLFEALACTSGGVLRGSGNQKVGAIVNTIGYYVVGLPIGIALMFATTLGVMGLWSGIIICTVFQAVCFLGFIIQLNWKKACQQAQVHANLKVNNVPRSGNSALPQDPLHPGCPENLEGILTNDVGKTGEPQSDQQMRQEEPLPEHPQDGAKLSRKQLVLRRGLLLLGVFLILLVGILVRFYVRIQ
Assay: Inhibition of hMATE1-mediated MPP+ uptake, stably transfected 293 cells
Assay type: cell-based
Details: substrate 3 µM MPP+, median (95% CI)
Description: We characterized the inhibitory potential of iohexol on major drug transporters recommended by regulatory agencies, which were previously assessed in a clinical transporter phenotyping cocktail study. These transporters include hOAT1, hOAT3, hOCT1, hOCT2, hMATE1, hMATE2K, human organic anion transporter polypeptides (hOATP)1B1, hOATP1B3, and human multidrug resistance protein (hMDR)1. Additionally, we investigated whether iohexol is a substrate for any of the renal transporters among these, including hOAT1/3, hOCT1/2, and hMATE1/2K. Cell‐based uptake assays were used to assess the activities of hOAT1/3, hOCT1/2, hMATE1/2K, and hOATP1B1/1B3. Inside‐out membrane vesicle uptake assays were used to evaluate the activity of hMDR1.
To determine the maximal inhibitory potential of iohexol, intracellular accumulation of a standard substrate was measured with and without the clinically relevant highest concentrations of iohexol. Control inhibitors were tested in each experiment.
In all subsequent in vitro studies, control experiments were conducted to validate the results. These included positive controls for substrates and inhibitors, as well as cells either without transporter expression or transfected with an empty vector, and control vesicles. Each condition, including cells or vesicles with the transporter and their respective controls, was analyzed in at least three replicates. For detailed information on materials, methods, and data analysis techniques used, refer to the Supporting Information. […]
R version 4.2.1 (R Foundation for Statistical Computing, Vienna, Austria) was used for statistical evaluations and data visualization. The data analysis approach for the in vitro study was detailed by Hsin CH et al..^1 In brief, for transport assays, the initial uptake rate was calculated by normalizing the substrate concentration to both the protein concentration and the incubation time for each dish or well. The transporter-mediated uptake rate (net uptake) was determined by performing an element-wise subtraction of uptake rates from different conditions. […]

CC(=O)N(CC(O)CO)c1c(I)c(C(=O)NCC(O)CO)c(I)c(C(=O)NCC(O)CO)c1I (stereo not drawn) [iohexol]
Inhibitory effect (% reduction of specific activity) (20 mM iohexol): no notable inhibitory effects | inhibition at 1000 µM (HEK293, 1 mM iohexol, read-out: Inhibitory effect (% reduction of specific activity)): 5.4% | inhibition at 20000 µM (HEK293, 20 mM iohexol, read-out: Inhibitory effect (% reduction of specific activity)): 12%
